# Where two headings read alike, the source gives them in different places.
# Legend:
# [1] = system: sensory (substance P expressing) neurons in the spinal cord; experiment: Fluorescent viability stain with immunocytochemistry; format: cell-based; conditions: ~10 μM
# Protocol: (§1) We have also found this drug to be neuxotoxic at high concentrations in our assay system and which correlates well with animal data showing neurotoxicity above the maximum tolerated dose (MTD). Using a fluorescent viability stain (ethidium homodimer and calccin AM, Molecular Probes) coupled with immunocytochemistry, we determined that ˜10 μM Kahalalide is toxic to central nervous system (CNS) neurons (neurofilament positive) but spares astrocytes (glial fibrilary acidic protein positive) as well as sensory (substance P expressing) and motor (choline acetyl transferase positive) neurons in the spinal cord. We conclude that Kahalalide F is a promising drug for the treatment of prostate cancer as its neurotoxicity is relatively mild at or below MTD levels.
# [2] = system: astrocytes (glial fibrilary acidic protein positive); experiment: as above; format: cell-based; conditions: ~10 μM
# Protocol: as §1
# [3] = system: motor (choline acetyl transferase positive) neurons in the spinal cord; experiment: as above; format: cell-based; conditions: ~10 μM
# Protocol: as §1
# [4] = system: central nervous system (CNS) neurons (neurofilament positive); experiment: as above; format: cell-based; conditions: ethidium homodimer and calcein AM stain
# Protocol: as §1
# T-10 = experiment: In vitro antiproliferative study; format: cell-based; conditions: T-10 prostate tumor
# [5] = In vitro exposure studies; format: cell-based; conditions: exposure of 1 hour as potent as 48 hours, in most cases
# [6] = system: skeletal muscle (L8) cells; experiment: CellTiter96 (MTS) in vitro cytotoxicity assay; format: cell-based
# PC-3 = experiment: In vitro antiproliferative study; format: cell-based; conditions: PC-3 prostate tumor
# [7] = system: dedifferentiated and mesenchymal chodrosarcomas, CHSAs
# [8] = system: patients with advanced or metastatic androgen refractory prostate cancer; experiment: Phase I study: toxicity and anti-tumor activity; format: in vivo, human
# BT-474 = experiment: In vitro antiproliferative study; format: cell-based; conditions: BT-474 neu+ breast tumor cells
# prostate carcinoma cells = experiment: Cytotoxicity to carcinoma cells; format: cell-based
# [9] = system: fresh human tumor specimens; experiment: Human Tumor Cloning Assay; format: cell-based; conditions: 14-day continuous exposure, 31 evaluable specimens
# Protocol: In the present study, fresh human tumor specimens were treated with KF to determine activity, utilizing the Human Tumor Cloning Assay. One hundred and four patient tumor specimens were treated with KF under 14-day continuous exposure at 0.01, 0.1, and 1.0 μM. Specimens were incubated in a 2-layer soft-agar cloning system at 37° C. and were removed on Day 14 for colony count. Colonies formed in the treated plates were compared to the number of colonies formed in the untreated control plates, and the percent colonies surviving at each concentration was calculated. The positive control plates contained the cell poison orthosodium vanadate (200 μg/ml). Among these specimens, approximately 30% were evaluable with appropriate negative and positive controls.
# DHM = experiment: In vitro antiproliferative study; format: cell-based; conditions: DHM prostate tumor
# [10] = Solubility of KF and recovery after reconstitution and dilution; format: physicochemical; conditions: 5/5/90% v/v/v CEW, diluted with 0.9% NaCl down to 0.5 μg/mL
# Protocol: Methods. Solubility and stability of KF were studied as a function of polysorbate 80 (P80; 0.1-0.5% w/v) and citric acid monohydrate (CA; 5-15 mM) concentrations using an experimental design approach. Stabilities of KF lyophilized products containing crystalline (mannitol) or amorphous (sucrose) bulking agents were studied at +5° C. and +30° C. in the dark. Lyophilized products were characterized by infrared (IR) spectroscopy and differential scanning calorimetry. Recovery studies after reconstitution of KP lyophilized product and further dilution in infusion fluid were carried out to select an optimal reconstitution vehicle. Results. […] A combination of 0.1% w/v P80 and 5 mM CA was selected for further investigation. […] The glass transition temperature of the sucrose-based product was determined to be +46° C. The amorphous state of the product was confirmed by IR analysis. […] A stable lyophilized formulation is presented containing 100 μg of kahalalide F, 100 mg sucrose, 2.1 mg CA and 2 mg P80 to be reconstituted with a vehicle composed of 5/5/90% v/v/v CEW, and to be further dilute using normal saline.
# RB = experiment: In vitro antiproliferative study; format: cell-based; conditions: RB prostate tumor
# [11] = CellTiter96 (MTS) in vitro cytotoxicity assay; conditions: H9 c2 (2-1) cardiac cells
# SK-BR-3 = experiment: In vitro antiproliferative study; format: cell-based; conditions: SK-BR-3 neu+ breast tumor cells
# [12] = CellTiter96 (MTS) in vitro cytotoxicity assay; format: cell-based; conditions: rat, NRX-52E kidney cells; read-out: LD50 (the source's name)
# BE(2)C = experiment: In vitro antiproliferative study; format: cell-based; conditions: BE(2)C neuroblastoma cell line
# [13] = Phase I study: plasma pharmacokinetics; format: in vivo, human
# Protocol: Bioanalysis of KF was performed by LC-MS/MS.
# [14] = CellTiter96 (MTS) in vitro cytotoxicity assay; format: cell-based; conditions: mouse, AML-12 liver cells; read-out: LD50 (the source's name)
# [15] = glass infusion containers, refrigerated (+2-8° C., in the dark)
# Excerpt: Prior to in i.v. administration it is reconstituted with a solution composed of Cremophor EL, ethanol absolute and Water for Injection (CEW, 5/5/90% v/w) with further dilution in 0.9% w/v sodium chloride for infusion.
# DU-145 = experiment: In vitro antiproliferative study; format: cell-based; conditions: DU-145 prostate tumor
# [16] = system: hepatocellular carcinoma cells; experiment: Cytotoxicity to carcinoma cells; format: cell-based
# [17] = CellTiter96 (MTS) in vitro cytotoxicity assay; format: cell-based; conditions: mouse, FDC-P1 myelogenous stem cells; FDC-Pl myelogenous stem cells; read-out: LD50 (the source's name)
# [18] = Rodent maximum tolerated dose; format: in vivo
compound,measurement,setting,value
"C/C=C1\NC(=O)[C@H](Cc2ccccc2)NC(=O)[C@@H](C(C)C)NC(=O)[C@@H](C(C)CC)NC(=O)[C@H](NC(=O)C(NC(=O)[C@H](CCCN)NC(=O)[C@H]2CCCN2C(=O)[C@H](NC(=O)[C@@H](NC(=O)[C@@H](NC(=O)[C@H](NC(=O)CCCC(C)C)C(C)C)C(C)O)C(C)C)C(C)C)C(C)CC)C(C)OC(=O)[C@H](C(C)C)NC1=O (single isomer, unassigned) [Kahalalide F, kahalalide F]",toxicity to sensory neurons,[1],spares
same,toxicity to astrocytes,[2],spares
same,toxicity to motor neurons,[3],spares
same,concentration toxic to CNS neurons,[4],~10 µM
same,IC50,T-10,0.73 µM
same,schedule dependence of cytotoxicity,[5],not schedule-dependent
same,LD50,[6],0.6 mM
same,IC50,PC-3,0.27 µM
same,cytotoxicity,[7]; CHSAs,cytotoxic
same,exposure time eliciting a cytotoxic effect,[7]; cells not specified further in the sentence,10 min
same,drug related toxicity,"[8]; 320 μg/m2/day, rapidly reversible",CTC grade 3 ASAT
same,tolerability of schedule,"[8]; one hour infusion, five consecutive days every three weeks",well tolerated
same,maximum tolerated dose,"[8]; up to 320 μg/m2/day, study ongoing",has not been reached yet
same,cytotoxicity,"osteosarcomas, OSAs",cytotoxic
same,IC50,BT-474,2 µM
same,cytotoxicity,prostate carcinoma cells,cytotoxic
same,specimens with in vitro response (50% survival),[9]; 0.01 μg/M,16%
same,specimens with in vitro response (50% survival),[9]; 0.1 μg/M,19%
same,specimens with in vitro response (50% survival),[9]; 1.0 μg/M,81%
same,IC50,DHM,0.24 µM
same,KF in solution after reconstitution and further dilution,[10],kept KF in solution
same,IC50,RB,0.19 µM
same,LD50,[11],5 mM
same,IC50,SK-BR-3,2.5 µM
same,CC50,[12],1.6 µM
same,IC50,BE(2)C,1 µM
same,maximum plasma concentrations,[13]; 320 μg/m2/day,35 to 50 ng/mL
same,relationship between dose and AUC,"[13]; i.v. infusion over one hour, 20-320 μg/m2/day, patients",linear relationship
same,CC50,[14],0.17 µM
same,stability of infusion solutions,[15],at least 5 days
same,IC50,DU-145,0.25 µM
same,cytotoxicity,[16],cytotoxic
same,CC50,[17],14 µM
same,MTD,[18],300 μg/kg BW

# — US7473681B2, “Kahalalide F” (Pharma Mar, S.A., priority 2000, dated 2009)
